Results on 2 compounds are retold here after patent US9221825B2, “Pyrazolopyrimidinone compound and imidazo triazone compound for treating erectile dysfunction” (Zhejiang Dade Pharmaceutical Group Co., Ltd., priority 2011, dated 2015).

The assay relates to adult sexual mature male Sprague-Dawley rats. The experiment in a line: Efficacy test of the drug for anti-Erectile Dysfunction (copulation test). In kind it is in vivo, rat. As to conditions: for Catching times / Latent period of catch behavior / Riding times: intragastric administration.
[1] abbreviates: animal experiments, in comparison with Sildenafil.
Setting [2] is: male Sprague-Dawley rats, dosage 2.2 mg/kg bw.
[3] abbreviates: male Sprague-Dawley rats, dosage 4.4 mg/kg bw.
[4] abbreviates: male Sprague-Dawley rats, dosage 8.8 mg/kg bw.

For the compound `CCCc1nn(C)c2c(=O)[nH]c(-c3cc(S(=O)(=O)N4CCCN(C)CC4)ccc3OCC)nc12.O=C(O)CC(O)(CC(=O)O)C(=O)O` [ED9001, 5-[2-ethoxy-5-(4-methyl-1-homopiperazinylsulfonyl)]-phenyl-1-methyl-3-n-propyl-1,6-dihydro-7H-pyrazolo[4,3-d]pyrimidine-7-one citrate], under setting [1], the Effective drug duration result was “longer” and the Onset time entry was “shorter”. The “Effect on catching times in comparison with the solution control group” value (male Sprague-Dawley rats, P<0.05) was “distinct effect on improving catching times”. Under setting [2], the Catching times is given as 31 ± 9 times, the “Latent period of catch behavior” value is on record as 12.1 ± 3.6 s and the Riding times was 24 ± 7 times. Under setting [3], the Catching times was 26 ± 9 times, the “Latent period of catch behavior” value amounted to 14.4 ± 7.5 s and the Riding times is given as 21 ± 7 times. Besides, under setting [4], the Catching times was 32 ± 9 times, the “Latent period of catch behavior” value was 14.2 ± 4.9 s and the Riding times came out at 27 ± 10 times.

On to `CCCc1nn(C)c2c(=O)[nH]c(-c3cc(S(=O)(=O)N4CCN(C)CC4)ccc3OCC)nc12` [Sildenafil, reference compound], for which, under setting [3], the Catching times was found to be 27 ± 6 times, the “Latent period of catch behavior” value is 12.5 ± 6.5 s and the Riding times was determined as 24 ± 7 times.
